Here are results for eight compounds from patent US20260182575A1, “MOLECULES HAVING PESTICIDAL UTILITY AND INTERMEDIATES AND PROCESSES RELATED THERETO” (CORTEVA AGRISCIENCE LLC, priority 2022, published 2026).

Assay [1] has as its system Green Peach Aphid (Myzus persicae, MYZUPE, GPA). Nature of the assay: Bioassay 1: green peach aphid, cabbage seedling foliar spray. It is filed as in vivo. Particulars: for Average % Control AI: 3 days. The procedure: Bioassay 1: Green Peach Aphid (Myzus persicae, MYZUPE, “GPA”).
Stock solutions of F1 and various active ingredients were prepared initially at a concentration of 4 milligrams per milliliter (mg/mL) for F1 and 0.1 mg/mL for the active ingredients, respectively, using a 1:1 mixture of acetone:methanol as a diluent. Stock solutions were prepared with F1 as well as for each of the active ingredients individually. Test solutions were prepared from the stock solutions. Test solutions were prepared containing F1, the individual active ingredients, and mixtures of F1 with each of the active ingredients. The test solutions for F1 and the individual active ingredients were prepared by adding 750 microliters (μL) of stock solution to a 25 mL glass vial, then adding 750 μL of 1:1 acetone:methanol solvent, followed by the addition of 13.5 mL water with 0.025% Tween® 20 to create a 0.0005% (weight/volume (w/v)) solution. The test solutions containing mixtures of F1, and the individual active ingredients were prepared by adding 750 μL of the active ingredient stock solution to a 25 mL glass vial, followed by 750 μL of the F1 stock solution, then by the addition of 13.5 mL water with 0.025% Tween® 20 to create a test solution containing 0.0005% (w/v) F1 and 0.0005% (w/v) of the active ingredient. Each test solution was serially diluted to create desired doses of test solutions (0.0005% (w/v), 0.000125% (w/v), 0.00003125% (w/v), 0.0000078% (w/v), 0.00000195% (w/v), and 0.0000005% (w/v)). In test solutions containing mixtures of F1 and the active ingredients, the active ingredients were diluted as described above, but the concentration of F1 was held constant (0.04% (w/v)).
The test solutions were tested against GPA using the following procedure: cabbage seedlings, grown in 3-inch pots with 2-3 small (3-5 centimeter (cm)) true leaves, were used as test substrate. The seedlings were infested with 20-50 GPA (wingless adult and nymph stages) one day prior to chemical application. Four pots with individual seedlings were used for each treatment. A hand-held aspirator-type sprayer was used for spraying a solution to both sides of […] leaves until runoff. Reference plants (solvent check) were sprayed with the diluent only (0.025% Tween® 20 and 10% acetone:methanol (1:1) in water). Treated plants were held in a holding room for three days at approximately 25° C. and ambient relative humidity (RH about 20% to about 45%) prior to grading. Evaluation was conducted by counting the number of live aphids per plant under a microscope three days after treatment. Percent control was measured using Abbott's correction formula (W. S. Abbott, J. Econ. Entomol. 18 (1925), pp. 265-267) as follows:
where X=No. of live aphids on solvent check plants and Y=No. of live aphids on treated plants. In Table B1 the “Expected % Control” was calculated using the method described in Colby S. R., Weeds, 1967, 15, 20-22. Bioassay 2: Sweet Potato Whitefly (Bemisia tabaci, BEMITA, “SPW”).

The subject of assay [2] is Western Flower Thrips (Frankliniella occidentalis, FRANOC, WFT). Nature of the assay: Bioassay 3: western flower thrips, cotton leaf disc dip. Particulars: for Average % Control AI: 3 days; for Average % Control F1: F1 alone, 3 days after treatment. It is filed as in vivo.
The mark [3] stands for this setting: AI alone at the rate of Wt Ratio F1:AI 1:40000 (F1 0.04).
Setting [4] is: AI alone at 1:1 rate to F1 3.125 (10^-6 Wt %).
The mark [5] stands for this setting: AI alone at the rate of Wt Ratio F1:AI 1:2564 (F1 0.04).
Where [6] appears, read: AI alone at the rate of Wt Ratio F1:AI 1:640 (F1 0.04).
[7] abbreviates: AI alone at 1:1 rate to F1 0.78 (10^-6 Wt %).

Several values for one entry are separate records, joined by “and”; a condition that tells them apart may be missing. Identical values can stand only once.

Turning to `Cc1c(COC(=O)[C@@H]2[C@H](/C=C(\Cl)C(F)(F)F)C2(C)C)cccc1-c1ccccc1` (racemic) [Bifenthrin], the “Average % Control AI” value in assay [1] (setting [3]) came to 16.3%; in assay [2] (setting [4]), 11.5%.
As for `C[C@]1(COC(=O)C2CC2)[C@@H]2C[C@H](O)[C@@]3(C)Oc4cc(-c5cccnc5)oc(=O)c4[C@H](O)[C@@H]3[C@@]2(C)CC[C@@H]1OC(=O)C1CC1` [Afidopyropen], the “Average % Control AI” value in assay [2] (AI alone at 1:1 rate to F1 12.5 (10^-6 Wt %)) was 0.0%; in assay [2] (AI alone at 1:1 rate to F1 50 (10^-6 Wt %)) it was 5.7%.
With `Cc1ccc(COCC(F)(F)F)c(N2C(=O)CS/C2=N\C(=O)Nc2ccc(-c3ncn(-c4ccc(OC(F)(F)F)cc4)n3)cc2F)c1` [F1], the “Average % Control F1” value in assay [1] (F1 alone, Wt % 0.04 (10^-6), cabbage spray, 3 days after treatment) is 8.8% and 7.1% and 15.8%; in assay [2] (Wt % F1 (10^-6) 0.195, cotton leaf disc), 0.0% and 5.7%; in assay [2] (Wt % F1 (10^-6) 12.5, cotton leaf disc), 46.0%; in assay [2] (Wt % F1 (10^-6) 50, cotton leaf disc), 79.3%.
For `CON=CNC(=O)c1ccc(C2=NOC(c3cc(Cl)cc(Cl)c3)(C(F)(F)F)C2)cc1C` (stereo not shown) [Fluxametamide], the “Average % Control AI” value was 23.1% in assay [1] (setting [5]) and 4.8% in assay [2] (setting [4]).
Turning to `COC(=O)N(C(=O)N1CO[C@@]2(C(=O)OC)Cc3cc(Cl)ccc3C2=N1)c1ccc(OC(F)(F)F)cc1` [Indoxacarb], the “Average % Control AI” value is reported as 10.1% in assay [1] (setting [6]) and 0.0% in assay [1] (setting [3]).
Take `CC1=NNC(=O)N(/N=C/c2cccnc2)C1` [Pymetrozine]: the “Average % Control AI” value is 47.6% in assay [1] (setting [6]), 15.4% in assay [1] (setting [3]) and 21.4% in assay [2] (setting [4]).
Turning to `CN1COCN(Cc2cnc(Cl)s2)/C1=N\[N+](=O)[O-]` [Thiamethoxam], the “Average % Control AI” value in assay [1] (AI alone at the rate of Wt Ratio F1:AI 1:10256 (F1 0.04)) is recorded as 8.5%; in assay [1] (setting [3]), 0.0%; in assay [2] (AI alone at 1:1 rate to F1 0.195 (10^-6 Wt %)), 20.0%; in assay [2] (setting [7]), 20.0%; in assay [2] (setting [4]), 6.7%.
As to Chlorfenapyr, the “Average % Control AI” value in assay [1] (setting [5]) came out at 10.1%; in assay [2] (setting [7]), 16.7%.
